Patent US20220251084A1, “PROGRANULIN MODULATORS AND METHODS OF USING THE SAME” (ARKUDA THERAPEUTICS, priority 2019, published 2022)

The molecules below were run on progranulin (PGRN) secretion, BV-2 cells (assay: PGRN assay: progranulin induction cellular assay (ELISA of secreted mouse PGRN)). Conditions: not given.
Type: cell-based
Method: Cellular Assays: To measure the efficacy of compounds, a progranulin induction cellular assay in mouse primary microglia (pMG), primary cortical neurons, and BV-2 cell lines is used. BV-2 cells are split the day before plating into a 96 well plate format at approximately 80%. Cells should be plated the day before and allowed for 1 hour attachment period and for 16 hour incubation. […] Standard ELISA kits to measure PGRN are available from vendors such as Adipogen, R&D, and Biovendor.

Structure (SMILES) | EC50 [µM]
Fc1ccc(C2c3ccccc3CCN2C(C[C@@H]2CN3CCC2CC3)C(F)(F)F)cc1 (stereo partly shown) [Compound 2133] | 9.76
O=C(O[C@H]1CN2CCC1(F)CC2)N1CCc2ccccc2[C@@H]1c1ccc(F)cc1 (single isomer, unassigned) [Compound 2127] | 1.86

Same assay, conditions: Mus musculus, BV-2

Structure (SMILES) | EC50 [µM]
CS(=O)(=O)c1ccc2c(c1)CCN(C(=O)O[C@@H]1CN3CCC1CC3)[C@@H]2c1ccc(F)cc1 [Compound 2026] | > 10

Same assay, conditions: Mus musculus, BV-2, PGRN assay, Table C; secreted mouse PGRN in cell culture medium, ELISA

Structure (SMILES) | EC50 [µM]
C#CCOc1ccc2c(c1)C(c1ccc(F)cc1)N(C(=O)OCC13CCN(CC1)CC3)CC2 (stereo in doubt) [Compound 2053, (S)-quinuclidin-4-ylmethyl 1-(4-fluorophenyl)-7-(prop-2-ynyloxy)-3,4-dihydroisoquinoline-2(1H)-carboxylate] | 5.74
O=C(C[C@@H]1CCCNC1)N1CCc2ccccc2[C@@H]1c1ccc(F)cc1 [Compound 2188] | 3.21
O=C(N[C@H]1CCN2CCC[C@@H]12)N1CCc2ccccc2[C@@H]1c1ccc(F)cc1 [Compound 2051] | > 10
O=C(OCC12CCN(CC1)CC2)N1CCc2ccccc2[C@H]1c1ccc(OCc2cncnc2)cc1 [Compound 2150] | 9.46
CN1CCC2(CCCN2C(=O)N2CCc3ccccc3[C@@H]2c2ccc(F)cc2)CC1 [Compound 2120, (S)-(1-(4-fluorophenyl)-3,4-dihydroisoquinolin-2(1H)-yl)(8-methyl-1,8-diazaspiro[4.5]decan-1-yl)methanone] | 2.68
COC(=O)c1ccc2c(c1)[C@H](c1ccc(F)cc1)N(C(=O)OCC13CCN(CC1)CC3)CC2 [Compound 2044] | 4.71
O=C(NCc1ccncc1)N1CCc2ccccc2[C@@H]1c1ccc(F)cc1 [Compound 2152] | 6.4
O=S(=O)(N[C@@H]1CN2CCC1CC2)N1CCc2ccccc2[C@@H]1c1ccc(F)cc1 [Compound 2010] | > 10
O=C(O[C@H]1CCCNC1)N1CCc2ccccc2[C@@H]1c1ccc(F)cc1 (single isomer, unassigned) [Compound 2168] | 2.54
C#CCOCCN1CCC(OC(=O)N2CCc3ccccc3[C@@H]2c2ccc(F)cc2)CC1 [Compound 2197, 1-(2-(prop-2-yn-1-yloxy)ethyl)piperidin-4-yl (S)-1-(4-fluorophenyl)-3,4-dihydroisoquinoline-2(1H)-carboxylate] | 1.06
COc1ncc(COc2ccc([C@H]3c4ccccc4CCN3C(=O)OCC34CCN(CC3)CC4)cc2)cn1 [Compound 2145] | 2.93
CN1CCN(C(=O)CC(=O)N2CCc3ccccc3[C@@H]2c2ccc(F)cc2)CC1 [Compound 2189, (S)-1-(1-(4-fluorophenyl)-3,4-dihydroisoquinolin-2(1H)-yl)-3-(4-methylpiperazin-1-yl) propane-1,3-dione] | 3.32
N#Cc1ccc2c(c1)CCN(C(=O)N[C@@H]1CN3CCC1CC3)[C@H]2c1ccc(F)cc1 [Compound 2014] | 2.32
COC(=O)c1ccc2c(c1)CCN(C(=O)NCC13CCN(CC1)CC3)[C@@H]2c1ccc(F)cc1 [Compound 2069] | 4.13
COC(=O)c1ccc2c(c1)[C@@H](c1ccc(F)cc1)N(C(=O)OCC13CCN(CC1)CC3)CC2 [Compound 2045] | > 10
COC(=O)c1ccc2c(c1)[C@H](c1ccc(F)cc1)N(C(=O)N[C@@H]1CN3CCC1CC3)CC2 [Compound 2116, methyl (S)-1-(4-fluorophenyl)-2-(((S)-quinuclidin-3-yl)carbamoyl)-1,2,3,4-tetrahydroisoquinoline-7-carboxylate] | > 10
O=C(NCC1CCNCC1)N1CCc2ccccc2[C@@H]1c1ccc(F)cc1 [Compound 2165] | > 10
O=C(OCC12CCN(CC1)CC2)N1CCc2ccccc2[C@H]1c1cc(F)c(F)c(F)c1 [Compound 2148] | 8.83

Structure (SMILES) | EC50 [µM]
N#Cc1ccc2c(c1)[C@H](c1ccc(F)cc1)N(C(=O)N[C@@H]1CN3CCC1CC3)CC2 [Compound 2038, 7-cyano-1-(4-fluorophenyl)-N—((S)-quinuclidin-3-yl)-3,4-dihydroisoquinoline-2(1H)-carboxamide] | > 10
O=C(OCC12CCN(CC1)CC2)N1CCc2ccccc2[C@H]1c1ccc(OCc2ncccn2)cc1 [Compound 2156] | 0.713
CN1CC2CCC(C1)C2OC(=O)N1CCc2ccccc2[C@@H]1c1ccc(F)cc1 (stereo in doubt) [Compound 2094, (1S)-3-methyl-3-aza-bicyclo[3.2.1]octan-8-yl 1-(4-fluorophenyl)-3,4-dihydroisoquinoline-2(1H)-carboxylate] | 7.22
COC(=O)c1ccc2c(c1)CCN(C(=O)N[C@@H]1CN3CCC1CC3)[C@@H]2c1ccc(F)cc1 [Compound 2089] | > 10
O=C(OCC1CCN(CC(F)(F)F)CC1)N1CCc2ccccc2[C@@H]1c1ccc(F)cc1 [Compound 2107] | > 10
CN1CCC(COC(=O)N2CCc3ccccc3[C@@H]2c2ccc(F)cc2F)CC1 [Compound 2105] | 1.07
O=S(=O)(CCC12CCN(CC1)CC2)N1CCc2ccccc2[C@@H]1c1ccc(F)cc1 [Compound 2058, (S)-4-(2-(1-(4-fluorophenyl)-3,4-dihydroisoquinolin-2(1H)-ylsulfonyl)ethyl)quinuclidine] | 3
CN1CC2(CC(OC(=O)N3CCc4ccccc4[C@@H]3c3ccc(F)cc3)C2)C1 [Compound 2019] | 0.965
CN1CCC(F)(COC(=O)N2CCc3ccccc3[C@@H]2c2ccc(F)cc2)CC1 [Compound 2114] | 0.401
CN1CC2(CC[C@H]2OC(=O)N2CCc3ccccc3[C@@H]2c2ccc(F)cc2)C1 [Compound 2022] | 0.96
COC(=O)c1ccc2c(c1)CCN(C(=O)OCC13CCN(CC1)CC3)[C@@H]2c1ccc(F)cc1 [Compound 2073] | > 10
CN1CCC2(CC1)CC(OC(=O)N1CCc3ccccc3[C@@H]1c1ccc(F)cc1)C2 [Compound 2018] | 1.89
CN1CCC(COC(=O)N2CCc3ccccc3[C@H]2c2ccc(F)c(F)c2)CC1 (single isomer, unassigned) [Compound 2139, (1-methylpiperidin-4-yl)methyl-1-(3,4-difluorophenyl)-3,4-dihydroisoquinoline-2(1H)-carboxylate] | > 10
O=C(OCC12CCN(CC1)CC2)N1CCc2ccccc2[C@@H]1c1cc(F)c(F)c(F)c1 [Compound 2147] | 4.74
O=C(OCC12CCN(CC1)CC2)N1CCc2ccccc2[C@@H]1c1ccc(OCc2ncccn2)cc1 [Compound 2155] | > 10
CNC(=O)c1ccc2c(c1)[C@H](c1ccc(F)cc1)N(C(=O)NCC13CCN(CC1)CC3)CC2 [Compound 2119, (S)-1-(4-fluorophenyl)-N7-methyl-N2-(quinuclidin-4-ylmethyl)-3,4-dihydroisoquinoline-2,7(1H)-dicarboxamide] | > 10
O=C(NCC12CCN(CC1)C2)N1CCc2ccccc2[C@@H]1c1ccc(F)cc1 [Compound 2193, (S)—N-((1-azabicyclo[2.2.1]heptan-4-yl)methyl)-1-(4-fluorophenyl)-3,4-dihydroisoquinoline-2(1H)-carboxamide] | 2.51

Same assay, conditions: Mus musculus, BV-2, PGRN assay, Table D; secreted mouse PGRN in cell culture medium, ELISA

Structure (SMILES) | EC50 [µM]
O=C(N1CCNCC(F)(F)C1)N1CCc2ccccc2[C@@H]1c1ccc(F)cc1 [Compound 2262, (S)-(6,6-difluoro-1,4-diazepan-1-yl)(1-(4-fluorophenyl)-3,4-dihydroisoquinolin-2(1H)-yl)methanone] | > 10
CN1CC(CNC(=O)N2CCc3ccccc3[C@@H]2c2ccc(F)cc2)C1 [Compound 2282] | > 10
CC1(C)CNC[C@@H]1OC(=O)N1CCc2ccccc2[C@@H]1c1ccc(F)cc1 [Compound 2291] | 0.591
CNC[C@H]1CN(C(=O)N2CCc3ccccc3[C@@H]2c2ccc(F)cc2)CCO1 [Compound 2307] | 0.483
O=C(O[C@@H]1CNC[C@@H]1F)N1CCc2ccccc2[C@@H]1c1ccc(F)cc1 [Compound 2363] | 0.104
O=C(OCC1CNC1)N1CCc2ccccc2[C@@H]1c1ccc(F)cc1 [Compound 2246, Azetidin-3-ylmethyl (S)-1-(4-fluorophenyl)-3,4-dihydroisoquinoline-2(1H)-carboxylate 2,2,2-trifluoroacetate] | 0.77
O=C(N[C@H]1CNCCOC1)N1CCc2ccccc2[C@H]1c1ccc(F)cc1 (single isomer, unassigned) [Compound 2278] | 0.439
O=C(N[C@@H]1CNCC12CC2)N1CCc2ccccc2[C@@H]1c1ccc(F)cc1 [Compound 2281] | 0.273
O=C(N1CC[C@]2(CNCCO2)C1)N1CCc2ccccc2[C@H]1c1ccc(F)cc1 (single isomer, unassigned) [Compound 2325] | 4.7
O=C(NC[C@@H]1CCCNC1)N1CCc2ccccc2[C@@H]1c1ccc(F)cc1 [Compound 2221] | 7.83
CN1C[C@@H](NC(=O)N2CCc3ccccc3[C@@H]2c2ccc(F)cc2)C2(CC2)C1 (single isomer, unassigned) [Compound 2317] | 9.74
CN(C(=O)N1CCc2ccccc2[C@@H]1c1ccc(F)cc1)[C@@H]1CNCC1(F)F [Compound 2296, (S)—N—((R)-4,4-difluoropyrrolidin-3-yl)-1-(4-fluorophenyl)-N-methyl-3,4-dihydroisoquinoline-2(1H)-carboxamide] | 4.02
CN1[C@@H]2CC[C@H]1[C@@H](NC(=O)N1CCc3ccccc3[C@@H]1c1ccc(F)cc1)C2 [Compound 2224] | 0.48
N[C@@H]1CCN(C(=O)N2CCc3ccccc3[C@H]2c2ccc(F)cc2)C1 [Compound 2286] | 2.84
O=C(N1CC[C@@]2(CNCCO2)C1)N1CCc2ccccc2[C@H]1c1ccc(F)cc1 (single isomer, unassigned) [Compound 2323] | 8.87
CN1[C@@H]2CC[C@H]1[C@H](NC(=O)N1CCc3ccccc3[C@@H]1c1ccc(F)cc1)C2 [Compound 2227] | 4.15

Same assay, conditions: PGRN assay, Table C; secreted mouse PGRN in cell culture medium, ELISA

Structure (SMILES) | EC50 [µM]
O=C(OC1CNC1)N1CCc2ccccc2[C@@H]1c1ccc(F)cc1 [Compound 2162] | > 10
